Measured values: paper PMC8725837, “2-Arylquinolines as novel anticancer agents with dual EGFR/FAK kinase inhibitory activity: synthesis, biological evaluation, and molecular modelling insights” (Journal of Enzyme Inhibition and Medicinal Chemistry, 2021)

Legend:
[1] = target: FAK (Homo sapiens, UniProt Q05397); assay: Z`-LYTE kinase inhibitory assay, FAK
[2] = target: EGFR (Homo sapiens, UniProt P00533); assay: Z`-LYTE kinase inhibitory assay, EGFR
[3] = target: T1, HER-2 (Homo sapiens, UniProt P04626); assay: Z`-LYTE kinase profiling, HER-2; type: biochemical
T1 construct: purchased Invitrogen/Life Technologies

[4] = target: T2, VEGFR-1 (Homo sapiens, UniProt P17948); assay: Z`-LYTE kinase profiling, VEGFR-1; type: biochemical
T2 construct: purchased Invitrogen/Life Technologies

[5] = system: MCF-7 breast cancer cell line; assay: MTT antiproliferative assay, MCF-7; type: cell-based; conditions: 10 µM, 24 h
Method: (§1) At least, three independent experiments were performed.

[6] = target: T3, c-Src (Homo sapiens, UniProt P12931); assay: Z`-LYTE kinase profiling, c-Src; type: biochemical
T3 construct: purchased Invitrogen/Life Technologies

[7] = target: T4, IGF-1R (Homo sapiens, UniProt P08069); assay: Z`-LYTE kinase profiling, IGF-1R; type: biochemical
T4 construct: purchased Invitrogen/Life Technologies

[8] = target: T5, VEGFR-2 (Homo sapiens, UniProt P35968); assay: Z`-LYTE kinase profiling, VEGFR-2; type: biochemical
T5 construct: purchased Invitrogen/Life Technologies

[9] = target: T6, FRK (Homo sapiens, UniProt P42685); assay: Z`-LYTE kinase profiling, FRK; type: biochemical
T6 construct: purchased Invitrogen/Life Technologies

[10] = target: T7, BTK (Homo sapiens, UniProt Q06187); assay: Z`-LYTE kinase profiling, BTK; type: biochemical
T7 construct: purchased Invitrogen/Life Technologies

[11] = target: T8, recombinant human TOP1 (Homo sapiens, UniProt P11387); assay: Topoisomerase I-mediated DNA cleavage assay; conditions: tested at 0.1, 1, 10, 100 µM
T8 sequence (P11387 1-765): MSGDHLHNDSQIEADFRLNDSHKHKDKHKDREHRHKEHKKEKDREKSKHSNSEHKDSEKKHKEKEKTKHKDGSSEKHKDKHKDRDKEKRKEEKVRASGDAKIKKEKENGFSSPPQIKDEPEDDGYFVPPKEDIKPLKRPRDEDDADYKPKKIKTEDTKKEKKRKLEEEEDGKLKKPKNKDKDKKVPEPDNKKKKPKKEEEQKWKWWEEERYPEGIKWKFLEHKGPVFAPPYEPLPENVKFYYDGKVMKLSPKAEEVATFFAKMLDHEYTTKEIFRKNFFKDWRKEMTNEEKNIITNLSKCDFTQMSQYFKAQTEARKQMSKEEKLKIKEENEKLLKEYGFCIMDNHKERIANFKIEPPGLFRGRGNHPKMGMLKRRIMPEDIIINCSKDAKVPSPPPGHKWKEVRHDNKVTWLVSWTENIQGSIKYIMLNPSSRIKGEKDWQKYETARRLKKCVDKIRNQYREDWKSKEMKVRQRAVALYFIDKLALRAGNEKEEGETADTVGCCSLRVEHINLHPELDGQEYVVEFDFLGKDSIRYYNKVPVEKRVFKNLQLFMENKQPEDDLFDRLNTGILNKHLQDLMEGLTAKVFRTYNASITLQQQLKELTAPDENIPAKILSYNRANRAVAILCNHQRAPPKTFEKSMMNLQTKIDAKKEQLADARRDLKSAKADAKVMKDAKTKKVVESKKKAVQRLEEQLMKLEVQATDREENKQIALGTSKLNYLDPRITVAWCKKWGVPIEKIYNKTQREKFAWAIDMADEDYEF
Method: Radiolabeled DNA was incubated with recombinant human TOP1 in 20 µL reaction buffer (10 mmol/L Tris-HCl, pH 7.5, 50 mmol/L KCl, 5 mmol/L MgCl2, 0.1 mmol/L EDTA, and 15 µg/mL BSA) at 30 °C for 20 min in the presence of the indicated drug concentrations. Reactions were terminated by adding SDS (0.5% final concentration) followed by the addition of two volumes of loading dye (80% formamide, 10 mmol/L sodium hydroxide, 1 mmol/L sodium EDTA, 0.1% xylene cyanol, and 0.1% bromophenol blue). Aliquots of reaction mixtures were subjected to 20% denaturing PAGE. Gels were dried and visualised by using PhosphorImager and Image Quant software (Molecular Dynamics).

[12] = system: HeLa cervical cancer cell line; assay: MTT antiproliferative assay, HeLa; type: cell-based; conditions: 10 µM, 24 h
Method: as §1

[13] = system: DLD-1 colorectal cancer cell line; assay: MTT antiproliferative assay, DLD-1; conditions: for GI% DLD1: 10 µM, 24 h, MTT; for IC50: Homo sapiens, DLD-1, 24 h, read-out: IC50 DLD1 (half maximal growth inhibitory concentration)
Method: (§2) After the incubation of the tested compounds for 24 h, the percent growth inhibition (GI%) was calculated.
(§3) Cells were seeded at 1 × 10^4 cells/well and cultured overnight in a 96-well plate. […] Then, 150 µl DMSO was used to solubilise MTT formazan crystals. Finally, the plates were shaken, and the optical density was determined at 570 nm using ELISA plate reader. At least, three independent experiments were performed. Percentage of growth inhibition was determined as (1-[OD of treated cells/OD of control cells]). […] The IC50 values were calculated using Prism v0.8 software (GraphPad Software Inc., La Jolla, CA).

[14] = system: HCT-116 colorectal cancer cell line; assay: MTT antiproliferative assay, HCT-116; conditions: for GI% HCT-116: 10 µM, 24 h, MTT; for IC50: Homo sapiens, HCT-116, 24 h, read-out: IC50 HCT-116 (half maximal growth inhibitory concentration)
Method: as §2, §3

[15] = system: MDMBA-231 breast cancer cell line; assay: MTT antiproliferative assay, MDMBA-231; type: cell-based; conditions: 10 µM, 24 h
Method: as §1

T7 sequence (Q06187 whole entry): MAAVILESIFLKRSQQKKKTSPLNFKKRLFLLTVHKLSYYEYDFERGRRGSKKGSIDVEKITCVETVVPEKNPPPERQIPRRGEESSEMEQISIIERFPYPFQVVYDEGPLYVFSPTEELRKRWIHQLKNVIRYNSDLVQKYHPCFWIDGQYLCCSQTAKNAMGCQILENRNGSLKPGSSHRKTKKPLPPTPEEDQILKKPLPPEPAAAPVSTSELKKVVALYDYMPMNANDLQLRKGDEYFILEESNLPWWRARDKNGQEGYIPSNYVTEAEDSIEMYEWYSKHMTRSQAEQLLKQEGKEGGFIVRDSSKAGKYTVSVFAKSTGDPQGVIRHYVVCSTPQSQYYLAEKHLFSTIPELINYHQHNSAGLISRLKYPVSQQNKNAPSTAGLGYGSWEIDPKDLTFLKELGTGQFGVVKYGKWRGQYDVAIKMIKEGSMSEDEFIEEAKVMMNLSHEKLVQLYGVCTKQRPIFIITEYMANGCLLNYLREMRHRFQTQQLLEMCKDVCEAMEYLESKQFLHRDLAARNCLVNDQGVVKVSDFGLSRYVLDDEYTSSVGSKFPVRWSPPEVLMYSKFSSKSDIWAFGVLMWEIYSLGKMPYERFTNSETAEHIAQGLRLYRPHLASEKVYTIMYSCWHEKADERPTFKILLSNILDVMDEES
T1 sequence (P04626 23-1255): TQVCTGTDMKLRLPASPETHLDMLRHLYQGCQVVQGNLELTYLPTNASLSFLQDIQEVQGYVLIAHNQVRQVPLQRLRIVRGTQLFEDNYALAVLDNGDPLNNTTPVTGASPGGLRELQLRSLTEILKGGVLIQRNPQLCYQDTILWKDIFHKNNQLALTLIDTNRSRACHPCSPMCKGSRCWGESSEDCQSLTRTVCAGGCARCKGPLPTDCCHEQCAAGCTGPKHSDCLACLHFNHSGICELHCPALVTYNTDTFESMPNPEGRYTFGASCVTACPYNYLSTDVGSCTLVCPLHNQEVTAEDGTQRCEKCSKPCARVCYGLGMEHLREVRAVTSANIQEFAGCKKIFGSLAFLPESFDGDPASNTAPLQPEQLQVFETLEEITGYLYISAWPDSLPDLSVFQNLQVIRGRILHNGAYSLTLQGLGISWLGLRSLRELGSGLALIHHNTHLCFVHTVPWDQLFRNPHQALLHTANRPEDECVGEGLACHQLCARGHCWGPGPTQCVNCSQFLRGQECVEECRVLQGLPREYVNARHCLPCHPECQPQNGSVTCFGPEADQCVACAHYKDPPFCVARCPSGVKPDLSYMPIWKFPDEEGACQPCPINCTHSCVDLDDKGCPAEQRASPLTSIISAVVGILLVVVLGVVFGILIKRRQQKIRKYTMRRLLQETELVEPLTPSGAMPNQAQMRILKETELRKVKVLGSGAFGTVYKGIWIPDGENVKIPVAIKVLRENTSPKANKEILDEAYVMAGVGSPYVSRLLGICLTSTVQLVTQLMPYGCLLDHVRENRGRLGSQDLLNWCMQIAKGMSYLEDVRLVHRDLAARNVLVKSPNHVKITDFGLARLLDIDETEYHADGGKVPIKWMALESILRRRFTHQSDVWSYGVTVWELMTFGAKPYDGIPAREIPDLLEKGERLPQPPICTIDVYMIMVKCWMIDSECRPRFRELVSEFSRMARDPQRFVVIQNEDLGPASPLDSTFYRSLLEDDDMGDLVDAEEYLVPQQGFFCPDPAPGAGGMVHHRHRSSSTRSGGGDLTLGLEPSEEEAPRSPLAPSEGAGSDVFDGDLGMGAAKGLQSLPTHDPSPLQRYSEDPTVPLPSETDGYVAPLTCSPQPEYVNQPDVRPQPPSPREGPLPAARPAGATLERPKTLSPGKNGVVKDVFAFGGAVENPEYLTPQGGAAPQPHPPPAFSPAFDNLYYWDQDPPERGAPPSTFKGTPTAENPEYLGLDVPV
FAK, sequence (Q05397 whole entry): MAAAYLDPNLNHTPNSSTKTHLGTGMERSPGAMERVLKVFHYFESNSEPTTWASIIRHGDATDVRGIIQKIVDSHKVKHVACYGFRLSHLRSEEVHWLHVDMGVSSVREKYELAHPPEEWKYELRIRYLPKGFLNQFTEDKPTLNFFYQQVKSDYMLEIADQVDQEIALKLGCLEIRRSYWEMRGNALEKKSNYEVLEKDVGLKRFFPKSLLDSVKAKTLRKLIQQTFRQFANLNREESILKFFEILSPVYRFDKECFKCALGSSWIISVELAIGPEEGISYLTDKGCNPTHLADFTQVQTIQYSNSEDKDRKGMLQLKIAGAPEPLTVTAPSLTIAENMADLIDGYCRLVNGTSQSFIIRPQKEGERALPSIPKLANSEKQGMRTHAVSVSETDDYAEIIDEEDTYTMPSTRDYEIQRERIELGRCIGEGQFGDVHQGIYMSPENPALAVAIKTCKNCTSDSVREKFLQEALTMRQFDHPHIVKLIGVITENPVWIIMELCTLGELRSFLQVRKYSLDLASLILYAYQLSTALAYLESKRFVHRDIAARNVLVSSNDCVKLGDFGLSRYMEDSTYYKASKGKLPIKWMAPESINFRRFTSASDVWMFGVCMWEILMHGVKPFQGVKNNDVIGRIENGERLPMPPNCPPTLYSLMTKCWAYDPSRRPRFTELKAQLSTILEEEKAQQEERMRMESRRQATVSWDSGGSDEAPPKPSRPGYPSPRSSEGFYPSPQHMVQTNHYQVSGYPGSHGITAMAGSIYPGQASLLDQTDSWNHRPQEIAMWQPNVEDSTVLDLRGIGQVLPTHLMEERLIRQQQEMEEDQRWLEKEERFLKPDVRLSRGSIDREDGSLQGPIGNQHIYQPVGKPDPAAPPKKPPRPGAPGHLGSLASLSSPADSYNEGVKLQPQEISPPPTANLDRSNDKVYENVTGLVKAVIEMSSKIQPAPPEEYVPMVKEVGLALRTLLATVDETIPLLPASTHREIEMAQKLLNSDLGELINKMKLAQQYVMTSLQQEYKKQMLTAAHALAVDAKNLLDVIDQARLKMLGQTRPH
T6 sequence (P42685 whole entry): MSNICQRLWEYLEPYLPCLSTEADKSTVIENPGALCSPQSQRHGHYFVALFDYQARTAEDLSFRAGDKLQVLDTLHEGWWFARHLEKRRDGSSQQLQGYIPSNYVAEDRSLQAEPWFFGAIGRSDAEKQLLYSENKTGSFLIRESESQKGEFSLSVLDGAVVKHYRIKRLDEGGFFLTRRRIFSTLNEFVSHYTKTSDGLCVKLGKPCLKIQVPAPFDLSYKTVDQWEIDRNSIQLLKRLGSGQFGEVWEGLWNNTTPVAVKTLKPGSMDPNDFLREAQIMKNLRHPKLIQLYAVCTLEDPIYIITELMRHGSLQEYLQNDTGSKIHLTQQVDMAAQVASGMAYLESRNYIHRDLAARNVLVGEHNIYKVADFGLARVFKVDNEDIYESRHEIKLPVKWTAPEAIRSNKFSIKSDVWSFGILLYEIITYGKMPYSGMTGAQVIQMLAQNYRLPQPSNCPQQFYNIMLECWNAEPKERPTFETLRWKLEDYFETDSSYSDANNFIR
EGFR, sequence (P00533 25-1210): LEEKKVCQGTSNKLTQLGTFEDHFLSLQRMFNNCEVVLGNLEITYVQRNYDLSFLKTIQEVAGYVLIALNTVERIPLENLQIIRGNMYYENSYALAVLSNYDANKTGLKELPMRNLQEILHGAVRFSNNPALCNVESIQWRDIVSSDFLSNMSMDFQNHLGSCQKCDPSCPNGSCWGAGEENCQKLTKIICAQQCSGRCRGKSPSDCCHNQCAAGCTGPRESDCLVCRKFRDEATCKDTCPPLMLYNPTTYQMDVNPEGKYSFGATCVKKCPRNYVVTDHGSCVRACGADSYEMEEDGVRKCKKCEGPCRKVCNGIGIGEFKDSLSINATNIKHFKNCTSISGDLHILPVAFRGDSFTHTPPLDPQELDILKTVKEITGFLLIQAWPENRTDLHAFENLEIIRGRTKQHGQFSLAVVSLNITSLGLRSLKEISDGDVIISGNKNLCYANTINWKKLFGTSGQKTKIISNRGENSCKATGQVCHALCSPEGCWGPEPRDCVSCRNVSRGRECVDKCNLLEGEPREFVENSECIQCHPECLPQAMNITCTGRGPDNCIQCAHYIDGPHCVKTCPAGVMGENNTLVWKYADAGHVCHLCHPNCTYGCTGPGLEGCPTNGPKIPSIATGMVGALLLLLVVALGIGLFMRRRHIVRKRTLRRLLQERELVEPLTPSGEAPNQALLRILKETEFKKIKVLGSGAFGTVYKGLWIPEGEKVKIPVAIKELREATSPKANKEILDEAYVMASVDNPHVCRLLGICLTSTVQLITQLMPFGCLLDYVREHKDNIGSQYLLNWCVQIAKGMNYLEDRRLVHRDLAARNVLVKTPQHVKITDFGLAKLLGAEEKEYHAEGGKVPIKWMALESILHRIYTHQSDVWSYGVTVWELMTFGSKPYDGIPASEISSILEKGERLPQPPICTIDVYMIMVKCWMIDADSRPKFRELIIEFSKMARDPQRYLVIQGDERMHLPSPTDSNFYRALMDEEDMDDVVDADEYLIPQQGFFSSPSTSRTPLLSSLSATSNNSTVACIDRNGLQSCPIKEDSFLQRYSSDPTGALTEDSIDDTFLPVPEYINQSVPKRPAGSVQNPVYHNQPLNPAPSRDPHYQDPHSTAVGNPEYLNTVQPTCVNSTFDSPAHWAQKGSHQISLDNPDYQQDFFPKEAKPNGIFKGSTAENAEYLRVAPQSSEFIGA

| Structure (SMILES) | melting point [°C] | IC50 [1] [µM] | IC50 [2] [µM] | IC50 [3] [µM] | IC50 [4] [µM] | GI% MCF-7 [5] [%] | IC50 [6] [µM] | IC50 [7] [µM] | IC50 [8] [µM] | IC50 [9] [µM] | IC50 [10] [µM] | TOP1 inhibitory activity (semiquantitative score relative to 1 µM CPT) [11] | GI% Hela [12] [%] | GI% DLD1 [13] [%] | IC50 [13] [µM] | GI% HCT-116 [14] [%] | IC50 [14] [µM] | GI% MDMBA-231 [15] [%] |
| --- | --- | --- | --- | --- | --- | --- | --- | --- | --- | --- | --- | --- | --- | --- | --- | --- | --- | --- |
| FC(F)(F)c1ccc(-c2cc(OCCCN3CCOCC3)c3cc4c(cc3n2)OCO4)cc1 [12d, 8-(3-morpholinopropoxy)-6-(4-(trifluoromethyl)phenyl)-[1,3]dioxolo[4,5-g]quinoline] | 138 to 140 | 0.273 ± 0.00284 | 0.4502 ± 0.00425 | 0.897 | 2.54 | 26.54 | 1.45 | 0.453 | 0.855 | 6.53 | 0.653 | 0 | 36.67 | 22.58 | 74.9 ± 5.46 | 54.37 | 9.2 ± 2.49 | 9.36 |
| Clc1ccc(-c2cc(OCCCn3ccnc3)c3cc(Br)ccc3n2)cc1 [16a, 4-(3-(1H-imidazol-1-yl)propoxy)-6-bromo-2-(4-chlorophenyl)quinoline] | 149 to 151 | 0.0441 ± 0.00326 | 0.222 ± 0.00825 | 2.02 | 1.96 | 22.97 | 1.35 | 5.23 | 3.41 | 6.15 | 4.8 | 0 | 47.35 | 60.08 | 8.22 ± 1.12 | 76.17 | 6.15 ± 1.3 | 51.24 |
| Clc1ccc(-c2cc(OCCCN3CCOCC3)c3cc(Br)ccc3n2)cc1 [16b, 4-(3-((6-bromo-2-(4-chlorophenyl)quinolin-4-yl)oxy)propyl)morpholine] | 137 to 139 | 0.0504 ± 0.00481 | 0.313 ± 0.0153 | 2.31 | 1.27 | 19.38 | 1.32 | 3.49 | 3.23 | 3.13 | 2.88 | 0 | 35.94 | 55.82 | 8.69 ± 2.64 | 87.61 | 4.22 ± 1.05 | 45.31 |
| Fc1ccc(-c2cc(OCCCn3ccnc3)c3cc(Br)ccc3n2)cc1 [16c, 4-(3-(1H-imidazol-1-yl)propoxy)-6-bromo-2-(4-fluorophenyl)quinoline] | 144 to 146 | 0.224 ± 0.0105 | 0.485 ± 0.0114 | 1.61 | 2.56 | 4.36 | 1.73 | 6.69 | 5.1 | 6.67 | 5.62 | + (+: 25–50% 1 µM CPT) | 8.67 | 12.25 | > 100 | 18.14 | 88 ± 5.24 | 20.11 |
| COc1ccc(-c2ccc3nc(-c4ccc(Cl)cc4)cc(OCCCn4ccnc4)c3c2)cc1 [20a, 4-(3-(1H-imidazol-1-yl)propoxy)-2-(4-chlorophenyl)-6-(4-methoxyphenyl)quinoline] | 210 to 212 | 0.0773 ± 0.00437 | 0.122 ± 0.0094 | 1.01 | 1.35 | 15.23 | 2.9 | 2.86 | 1.25 | 2.62 | 8.67 | 0 | 22.06 | 44.98 | 13.1 ± 3.69 | 36.71 | 24.1 ± 2.46 | 29.08 |
| COc1ccc(-c2ccc3nc(-c4ccc(Cl)cc4)cc(OCCCN4CCOCC4)c3c2)cc1 [20b, 4-(3-((2-(4-chlorophenyl)-6-(4-methoxyphenyl)quinolin-4-yl)oxy)propyl)morpholine] | 173 to 175 | 0.0633 ± 0.00325 | 0.245 ± 0.0123 | 1.65 | 4.74 | 29.37 | 4.21 | 8.91 | 2.3 | 8.71 | 8.98 | 0 | 34.02 | 53.15 | 9.65 ± 2.15 | 71.05 | 7.34 ± 1.82 | 48.31 |
| COc1ccc(-c2ccc3nc(-c4ccc(F)cc4)cc(OCCCn4ccnc4)c3c2)cc1 [20c, 4-(3-(1H-imidazol-1-yl)propoxy)-2-(4-fluorophenyl)-6-(4-methoxyphenyl)quinoline] | 176 to 178 | 0.091 ± 0.00585 | 0.362 ± 0.00526 | 1.23 | 1.75 | 76.82 | 9.05 | 1.88 | 8.97 | 1.44 | 8.67 | 0 | 22.08 | 41.34 | 16 ± 1.1 | 38.64 | 12.5 ± 3.05 | 32.11 |
| COc1ccc(-c2ccc3nc(-c4ccc(F)cc4)cc(OCCCN4CCOCC4)c3c2)cc1 [20d, 4-(3-((2-(4-fluorophenyl)-6-(4-methoxyphenyl)quinolin-4-yl)oxy)propyl)morpholine] | 168 to 170 | 0.125 ± 0.00315 | 0.147 ± 0.00837 | 1.77 | 0.712 | 15.34 | 0.251 | 0.0412 | 0.294 | 0.133 | 1.78 | 0 | 11.97 | 24.65 | 65.3 ± 5.36 | 36.91 | 29.5 ± 4.15 | 27.05 |
| Clc1ccc(-c2cc(OCCCn3ccnc3)c3cc(-c4ccco4)ccc3n2)cc1 [20e, 4-(3-(1H-imidazol-1-yl)propoxy)-2-(4-chlorophenyl)-6-(furan-2-yl)quinoline] | 130 to 132 | 0.0254 ± 0.00348 | 0.0337 ± 0.00102 | 0.0988 | 0.72 | 73.61 | 0.138 | 3.01 | 0.243 | 0.216 | 0.271 | 0 | 65.73 | 90.65 | 4.46 ± 0.65 | 89.64 | 4.75 ± 1.02 | 56.29 |
